In US20220112267A1, “PRODUCE AND ISOLATE AND/OR EXTRACT COLLAGEN AND/OR GELATIN FROM ANIMAL CELL LINES AND/OR TISSUE EXPLANTS” (Jellatech, Inc., priority 2020, published 2022):

Assays:
Assay type in all cases: cell-based
various cell types = assay: Effects of ginseng, palmitoleic acid and spirulina on collagen production in various cell types (FIG. 8-10)
Description: (§1) Moreover, FIG. 8 depicts a graph showing effects of ginseng on collagen production in various cell types. FIG. 8 has an x-axis 802 associated with a cell type and a ginseng concentration in μg/mL and a […] measuring a collagen concentration 806 and a protein concentration 808.
(§2) Further, FIG. 9 depicts a graph showing effects of palmitoleic acid on collagen production in various cell types. FIG. 9 has an x-axis 902 associated with a cell type and a palmitoleic acid concentration in μg/mL and a y-axis 904 measuring a collagen concentration 906 and a protein concentration 908.
(§3) FIG. 10 depicts a graph showing effects of a spirulina extract on collagen production in various cell types. FIG. 10 has an x-axis 1002 associated with a cell type and a spirulina extract concentration in μg/mL and a y-axis 1004 measuring a collagen concentration 1006 and a protein concentration 1008.
(§4) However, a total protein content is increased in bovine cells.

bovine cells [1] = assay: Effects of ginseng, palmitoleic acid and spirulina on total protein content in bovine cells (FIG. 8-10)
Description: as §1, §2, §3, §4

human cells = assay: Collagen production under different concentrations of vitamin C, human cells (FIG. 7C, 7D); conditions: seeding density 40,000 or 70,000 cells/well, 96 well plate
Description: (§5) In another example, a collagen detection method using a dual dye assay is described and depicted in FIG. 4. This method measures collagen content of samples using dyes in order to estimate collagen production of adherent cells in cultures without extracting the collagen. Samples may include bovine derma primary fibroblast cell lines or BJ human fibroblast/primary cells, among others not explicitly listed herein. Materials utilized in the method of FIG. 4 include: about 70% ethanol, sterile water, picric acid (or 2,4,6-trinitrophenol), about 0.1% Fast Green FCF solution in saturated picric acid, about 0.4% Fast Green FCF solution and about 0.11% Sirius Red in the saturated picric acid, and about 0.1% NaOH in methanol. The Fast Green FCF dye is used for total protein and the Sirius Red dye is used for collagen content determination. Equipment utilized with the method of FIG. 4 includes a laminar flow cabinet, a spectrophotometer, and a pipette. A process step 406 follows the process step 404 and includes adding a saturated solution of picric acid in distilled water containing a first amount of the Fast Green dye. In examples, the first amount of the Fast Green dye is about 0.01%. […] A process step 420 follows the process step 418 and includes utilizing the spectrophotometer to measure an absorbance at 540 nm and 630 nm. […]

porcine cell line = assay: Factor supplementation, Sircol Collagen Assay, commercially available porcine cell line; conditions: 3-10 days with factor
Protocol: (§6) In this embodiment, cells were seeded at approximately 3500-4500 cells per well of a 48 well-plate and were allowed to settle for about 48 hours before adding the factor. After about 48 hours, spent media was removed and replaced with growth media supplemented with the factor of interest. Cells continued to grow for about 3-10 days following initial introduction of the factor and a collagen content was quantified with a Sircol™ Collagen Assay. Additionally, experiments were conducted with and without media/factor replenishment about every 48-72 hours.

bovine cell lines = assay: Factor supplementation, Sircol Collagen Assay, commercially available bovine cell lines; conditions: for collagen production: commercially available bovine cell lines, 3-10 days with factor
Protocol: as §6

human KEL-FIB cell line = assay: Factor supplementation, Sircol Collagen Assay, human KEL-FIB cell line; conditions: for collagen production: 3-10 days with factor
Protocol: as §6

bovine cells [2] = assay: Collagen production under different concentrations of vitamin C, bovine cells (FIG. 7A, 7B); conditions: seeding density 40,000 or 70,000 cells/well, 96 well plate
Description: as §5

CCCCCC/C=C\CCCCCCCC(=O)O [palmitoleic acid]
effect on collagen production (various cell types): do not have a large effect | total protein content (bovine cells [1]): increased

O=C1O[C@H]([C@@H](O)CO)C(O)=C1O [vitamin C]
concentration of vitamin C at which the highest collagen concentration resulted (human cells): 10 to 100 mg/mL | collagen production (porcine cell line): increased | increase of collagen production (bovine cell lines; bovine cell lines): 28-36% | collagen production (bovine cell lines): increased | increase of collagen production (human KEL-FIB cell line): about 50% | collagen production (human KEL-FIB cell line): increased | concentration of vitamin C at which the highest collagen concentration resulted (bovine cells [2]): 10 to 100 mg/mL

O=S(=O)([O-])[O-].[Zn+2] [zinc sulfate]
collagen production (porcine cell line): increased | collagen production (bovine cell lines): increased | collagen production (human KEL-FIB cell line): increased
